# Patent US9458203B2, “Integrin-blocking polypeptides and uses thereof” (priority 2011, dated 2016)
# Values joined by “and” are separate entries in the source; they are usually repeats but may differ in a detail not shown here. Identical values can stand only once. Like-named read-outs stand apart in the source and are kept apart here. Ends that are not written are not given here.
# Key:
# [1] = test system: human testicular cancer 5637; type: in vivo, nude mice; conditions: for toxic and side effects, in words: mouse, in vivo
# Description: (§1) The total medication period was 14 days.
# [2] = test system: sarcoma HT-1080; type: in vivo, nude mice; conditions: for body weight of animals, in words / toxic and side effects, in words / final weight: mouse, in vivo
# Description: as §1
# [3] = type: in vivo, nude mice; conditions: mouse, in vivo
# Description: as §1
# [4] = test system: human gallbladder cancer GBC-SD; conditions: mouse, in vivo
# Description: (§2) Taking a certain amount of vigorously growing tumor tissue, grinding the tumor tissue under sterile conditions and preparing cell suspension at the concentration of 1×10^7 cells/ml; then hypodermicaly inoculating 0.1 ml of the cell suspension into the right axillary region of nude mice. Keeping measuring the diameter of the transplanted tumor with a vernier caliper, and randomly dividing the mice into groups when the volume of the tumor reached 100-200 mm^3. Observing the dynamic effect of integrin-blocking polypeptides on inhibiting the growth of the tumor by means of documenting the change of tumor diameters. Measuring the tumor diameter once every other day and recording the body weight of mice simultaneously. Intravenously injecting polypeptides to mice from test groups while administering equal quantity of physiological saline to mice from the negative control group. The total medication period was 14 days. Avastin was adopted to set up a positive control group; it was administered through the tail vein once every three days while all other drugs were administered through the tail vein once a day. Leaving mice for a one-week rest after 14 days' medication, then (21 days after medication) killing the mice, surgically dissecting the tumors and measuring the weight of tumors. The tumor volume (TV) was calculated in accordance with the following formula: TV=½×a×b^2
# (§3) Avastin used in the positive control group was administered once every 2 days through tail vein injection, while drugs of all other groups were administered on daily basis through tail vein injection.
# [5] = test system: human pancreatic cancer SW-1990; assay: heterotransplanted human pancreatic cancer SW-1990 in nude mice; type: in vivo
# Description: as §1
# [6] = test system: human laryngeal cancer Hep-2; assay: heterotransplanted human laryngeal cancer Hep-2 in nude mice; type: in vivo
# Description: as §1
# [7] = test system: human breast cancer MDA-MB-231; assay: heterotransplanted human breast cancer MDA-MB-231 in nude mice; conditions: 10 mg/kg/time, tail vein once every three days
# Description: as §2
# (§4) wherein a, b refer to the length and width of the tumor respectively.
# (§5) The relative tumor volume (RTV) can be calculated in accordance with the results of measurement, using the formula: RTV=Vt/V0, wherein V0 refers to the initial tumor volume measured on the date starting medication (namely d0) while Vt the tumor volume obtained through every measurement. The anti-tumor activity was evaluated by relative proliferation rate T/C (%), which was calculated in accordance with the following formula:
# (§6) wherein TRTV refers to the RTV of experimental groups; CRTV refers to the RTV of the negative control group.
# [8] = test system: human breast cancer MDA-MB-231; conditions: mouse, in vivo
# Description: as §2, §4, §5, §6
# [9] = test system: human esophageal cancer Ec109; type: in vivo, nude mice
# Description: as §1
# [10] = test system: human gallbladder cancer GBC-SD; assay: heterotransplanted human gallbladder cancer GBC-SD in nude mice
# Description: as §2, §3
# [11] = test system: human bladder cancer HT1376; assay: heterotransplanted human bladder cancer HT1376 in nude mice; type: in vivo
# Description: as §1
# [12] = test system: human lung cancer H460; conditions: mouse, in vivo
# Description: as §2
# (§7) Taxol used in the positive control group was administered once every 3 days through tail vein injection, while drugs of all other groups were administered on daily basis through tail vein injection.
# [13] = test system: human liver cancer SMMC-7721; conditions: mouse, in vivo
# Description: as §2, §7
# [14] = test system: human endometrial cancer HHUA; conditions: mouse, in vivo
# Description: as §2, §7
# [15] = test system: melanoma B16F10; assay: transplanted melanoma B16F10 in C57BL/6 black mice
# Description: Hypodermically injecting polypeptides and other drugs into the left axillary region of mice from the experimental groups respectively while administering only equal quantity of physiological saline to the mice from the negative control group. The total medication period was 14 days, during which cyclophosphamide was administered once every other day, taxol once every three days, low-dose polypeptide twice a day and all other drugs once a day.
# [16] = test system: human rectal cancer Colo 320; conditions: mouse, in vivo
# Description: as §2, §7
# [17] = test system: human brain tumor SF763; conditions: mouse, in vivo
# Description: as §2, §7
# [18] = test system: human cervical cancer HeLa; type: in vivo, nude mice
# Description: (§8) Taking a certain amount of vigorously growing tumor tissue, grinding the tumor tissue under sterile conditions and preparing cell suspension at the concentration of 1×10^7 cells/ml; then hypodermicaly inoculating 0.1 ml of the cell suspension into the right axillary region of nude mice. Keeping measuring the diameter of the transplanted tumor with a vernier caliper, and randomly dividing the mice into groups when the volume of the tumor reached 100-200 mm^3. […] Measuring the tumor diameter once every other day and recording the body weight of mice simultaneously. Intravenously injecting polypeptides to mice from test groups while administering equal quantity of physiological saline to mice from the negative control group. The total medication period was 14 days. Avastin was adopted to set up a positive control group; it was administered through the tail vein once every three days while all other drugs were administered through the tail vein once a day. Leaving mice for a one-week rest after 14 days' medication, then (21 days after medication) killing the mice, surgically dissecting the tumors and measuring the weight of tumors. The tumor volume (TV) was calculated in accordance with the following formula: TV=½×a×b^2
# [19] = test system: human gastric cancer MGC-803; conditions: mouse, in vivo
# Description: Keeping measuring the diameter of the transplanted tumor with a vernier caliper, and randomly dividing the mice into groups when the volume of the tumor reached 100-200 mm^3. Observing the dynamic effect of integrin-blocking polypeptides on inhibiting the growth of the tumor by means of documenting the change of tumor diameters. Measuring the tumor diameter once every other day and recording the body weight of mice simultaneously. Intravenously injecting polypeptides to mice from test groups while administering equal quantity of physiological saline to mice from the negative control group. The total medication period was 14 days. Avastin was adopted to set up a positive control group; it was administered through the tail vein once every three days while all other drugs were administered through the tail vein once a day. Leaving mice for a one-week rest after 14 days' medication, then (21 days after medication) killing the mice, surgically dissecting the tumors and measuring the weight of tumors. The tumor volume (TV) was calculated in accordance with the following formula: TV=½×a×b^2
# [20] = test system: human renal cancer A498; type: in vivo, nude mice
# Description: as §8
# [21] = test system: human colon cancer HT-29; type: in vivo, nude mice
# Description: as §8
# [22] = test system: human thyroid cancer SW-579; type: in vivo, nude mice
# Description: as §8
# [23] = test system: human ovarian cancer SK-OV-3; type: in vivo, nude mice
# Description: as §8
# [24] = test system: human prostate cancer DU-145; type: in vivo, nude mice
# Description: as §8
# [25] = 10 mg/kg/time, once every 3 days, tail vein injection
# [26] = 5-FU 10 mg/kg/time, once every 3 days, tail vein injection
# [27] = positive control, tail vein once every 3 days
# [28] = avastin 10 mg/kg/time, once every 3 days, tail vein injection
# [29] = 10 mg/kg/time, once every 2 days, tail vein injection
# [30] = 15 mg/kg/time once every other day, hypodermic, 14 days
# [31] = 10 mg/kg/time, tail vein once every 3 days
# [32] = cisplatin 10 mg/kg/time, once every 3 days, tail vein injection
# [33] = 5 mg/kg/time (as printed in Table 29), once every 3 days, tail vein injection
molecule,measurement,setting,value
"O=c1[nH]cc(F)c(=O)[nH]1 [5-FU, 5-fluorouracil, reference compound]",tumor inhibition rate,[1]; [25],77.80%
same,tumor weight,[1]; [25],0.28 ± 0.06 g
same,"toxic and side effects, in words",[1],more apparent toxic and side effects
same,inhibition rate on tumor,[1]; tail vein once every 3 days,77.80% and 73.84%
same,tumor inhibition rate,[2]; [26],78.10%
same,tumor weight,[2]; [26],0.30 ± 0.07 g
same,"body weight of animals, in words",[2],greatly reduced the body weight
same,"toxic and side effects, in words",[2],more apparent toxic and side effects
same,inhibition rate on tumor,[2]; [27],78.10%
same,"body weight of animals, in words",[3],greatly reduced the body weight
avastin: Avastin was adopted to set up a positive control group [reference compound],"body weight of animals, in words",[4],no significant change
same,tumor inhibition rate,[5]; [25],79.07%
same,tumor weight,[5]; [25],0.27 ± 0.07 g
same,"body weight of animals, in words","[5]; mouse, in vivo",no significant change
same,inhibition rate on tumor,[5]; [27],79.07%
same,tumor inhibition rate,[6]; [28],76.79%
same,tumor weight,[6]; [28],0.26 ± 0.06 g
same,"body weight of animals, in words","[6]; mouse, in vivo",no significant change
same,inhibition rate on tumor,[6]; [27],76.79%
same,tumor weight,[7],0.26 ± 0.08 g
same,"body weight of animals, in words",[8],no obvious change
same,tumor inhibition rate,[9]; [25],69.00%
same,tumor weight,[9]; [25],0.47 ± 0.10 g
same,"body weight of animals, in words","[9]; mouse, in vivo",no significant change
same,inhibition rate on tumor,[9]; [27],69.00%
same,tumor inhibition rate,[10]; [29],78.85%
same,tumor weight,[10]; [29],0.25 ± 0.06 g
same,inhibition rate on tumor,"[10]; positive control, tail vein once every 2 days",78.85%
same,tumor inhibition rate,[11]; [25],79.60%
same,tumor weight,[11]; [25],0.24 ± 0.06 g
same,"body weight of animals, in words","[11]; mouse, in vivo",no significant change
same,inhibition rate on tumor,[11]; [27],79.60%
FQPVLHLVALNSPLSGGMRGIRGADFQCFQQARAVGLAGTFRAGGGGRGD [polypeptide III],"body weight of animals, in words",[12],no significant change in body weight
same,"toxic and side effects, in words",[12],no obvious toxic and side effects
same,"body weight of animals, in words",[4],no significant change in body weight
same,"toxic and side effects, in words",[4],no obvious toxic and side effects
same,"body weight of animals, in words",[13],no significant change in body weight
same,"toxic and side effects, in words",[13],no obvious toxic and side effects
same,"body weight of animals, in words","[5]; mouse, in vivo",no significant change in body weight
same,"toxic and side effects, in words","[5]; mouse, in vivo",no obvious toxic and side effects
same,"body weight of animals, in words","[6]; mouse, in vivo",no significant change in body weight
same,"toxic and side effects, in words","[6]; mouse, in vivo",no obvious toxic and side effects
same,final weight,"[6]; mouse, in vivo, 0.1875 mg/kg",22.94 ± 0.46 g
same,final weight,"[6]; mouse, in vivo, 0.375 mg/kg",22.96 ± 0.57 g
same,final weight,"[6]; mouse, in vivo, 0.75 mg/kg",23.18 ± 0.51 g
same,"body weight of animals, in words",[14],no significant change in body weight
same,"toxic and side effects, in words",[14],no obvious toxic and side effects
same,"body weight of animals, in words","[15]; mouse, in vivo",no severe weight change
same,"toxic and side effects, in words","[15]; mouse, in vivo",no severe weight change or obvious toxic and side effects
same,"body weight of animals, in words",[16],no significant change in body weight
same,"toxic and side effects, in words",[16],no obvious toxic and side effects
same,final weight,[16]; 0.1875 mg/kg,22.81 ± 0.60 g
same,final weight,[16]; 0.375 mg/kg,22.93 ± 0.56 g
same,final weight,[16]; 0.75 mg/kg,23.14 ± 0.48 g
same,"body weight of animals, in words",[17],no significant change in body weight
same,"toxic and side effects, in words",[17],no obvious toxic and side effects
same,final weight,[17]; 0.1875 mg/kg,23.31 ± 0.57 g
same,final weight,[17]; 0.375 mg/kg,23.37 ± 0.56 g
same,final weight,[17]; 0.75 mg/kg,23.09 ± 0.53 g
same,"body weight of animals, in words","[18]; mouse, in vivo",no significant change in body weight
same,"toxic and side effects, in words","[18]; mouse, in vivo",no obvious toxic and side effects
same,"body weight of animals, in words",[19],no significant change in body weight
same,"toxic and side effects, in words",[19],no obvious toxic and side effects
same,"body weight of animals, in words",[8],no significant change in body weight
same,"toxic and side effects, in words",[8],no obvious toxic and side effects
same,"body weight of animals, in words","[20]; mouse, in vivo",no significant change in body weight
same,"toxic and side effects, in words","[20]; mouse, in vivo",no obvious toxic and side effects
same,"body weight of animals, in words","[21]; mouse, in vivo",no significant change in body weight
same,"toxic and side effects, in words","[21]; mouse, in vivo",no obvious toxic and side effects
same,"body weight of animals, in words","[22]; mouse, in vivo",no significant change in body weight
same,"toxic and side effects, in words","[22]; mouse, in vivo",no obvious toxic and side effects
same,"toxic and side effects, in words",[1],no obvious toxic and side effects
same,"body weight of animals, in words",[2],no significant change in body weight
same,"toxic and side effects, in words",[2],no obvious toxic and side effects
same,final weight,[2]; 0.1875 mg/kg,22.92 ± 0.57 g
same,final weight,[2]; 0.375 mg/kg,23.18 ± 0.57 g
same,final weight,[2]; 0.75 mg/kg,23.07 ± 0.56 g
same,"body weight of animals, in words",[3],no significant change in body weight
same,"body weight of animals, in words","[9]; mouse, in vivo",no significant change in body weight
same,"toxic and side effects, in words","[9]; mouse, in vivo",no obvious toxic and side effects
same,"body weight of animals, in words","[23]; mouse, in vivo",no significant change in body weight
same,"toxic and side effects, in words","[23]; mouse, in vivo",no obvious toxic and side effects
same,final weight,"[23]; mouse, in vivo, 0.1875 mg/kg",22.83 ± 0.50 g
same,final weight,"[23]; mouse, in vivo, 0.375 mg/kg",22.92 ± 0.70 g
same,final weight,"[23]; mouse, in vivo, 0.75 mg/kg",22.95 ± 0.64 g
same,"body weight of animals, in words","[11]; mouse, in vivo",no significant change in body weight
same,"toxic and side effects, in words","[11]; mouse, in vivo",no obvious toxic and side effects
same,"body weight of animals, in words","[24]; mouse, in vivo",no significant change in body weight
same,"toxic and side effects, in words","[24]; mouse, in vivo",no obvious toxic and side effects
O=P1(N(CCCl)CCCl)NCCCO1 (stereo not shown) [cyclophosphamide],final weight,[15]; [30],17.3 ± 1.5 g
same,tumor inhibition rate,[15]; [30],64.95%
same,tumor weight,[15]; [30],1.40 ± 0.06 g
"N.N.[Cl][Pt][Cl] [cisplatin, reference compound]",tumor inhibition rate,[18]; [31],73.13%
same,tumor weight,[18]; [31],0.38 ± 0.10 g
same,"body weight of animals, in words","[18]; mouse, in vivo",greatly reduced the body weight
same,tumor inhibition rate,[20]; [25],79.83%
same,tumor weight,[20]; [25],0.25 ± 0.06 g
same,"body weight of animals, in words","[20]; mouse, in vivo",greatly reduced the body weight
same,inhibition rate on tumor,[20]; [27],79.83%
same,tumor inhibition rate,[21]; [25],79.17%
same,tumor weight,[21]; [25],0.30 ± 0.05 g
same,"body weight of animals, in words","[21]; mouse, in vivo",greatly reduced the body weight
same,inhibition rate on tumor,[21]; [27],79.17%
same,tumor inhibition rate,[22]; [25],74.09%
same,tumor weight,[22]; [25],0.34 ± 0.07 g
same,"body weight of animals, in words","[22]; mouse, in vivo",greatly reduced the body weight
same,inhibition rate on tumor,[22]; [27],74.09%
same,tumor inhibition rate,[23]; [32],78.36%
same,tumor weight,[23]; [32],0.29 ± 0.06 g
same,"body weight of animals, in words","[23]; mouse, in vivo",greatly reduced the body weight
same,inhibition rate on tumor,[23]; [27],78.36%
same,tumor inhibition rate,[24]; [33],73.84%
same,tumor weight,[24]; [33],0.37 ± 0.10 g
same,tumor inhibition rate,[24]; [25],73.84%
same,tumor weight,[24]; [25],0.37 ± 0.10 g
same,tumor inhibition rate,[24]; [31],73.84%
same,tumor weight,[24]; [31],0.37 ± 0.10 g
same,"body weight of animals, in words","[24]; mouse, in vivo",greatly reduced the body weight
